Source: patent US11912693B2, “Compounds for modulating S1P1 activity and methods of using the same” (TREVENA, INC., priority 2017, dated 2024)

Tests used:
Type in all cases: cell-based
[1] = molecular target: sphingosine-1-phosphate receptor 5 (S1P5) (Homo sapiens (Human), UniProt Q9H228); assay: Inhibition of cAMP production (HTRF), S1P5 CHO-K1 cells; conditions: for hS1P5 cAMP pEC50: inhibition of cAMP production; for Emax: CHO-K1, efficacy normalized to fingolimod, read-out: hS1P5 cAMP SPAN
[2] = molecular target: T1, human sphingosine-1-phosphate receptor 1 (S1P1) (Homo sapiens (Human), UniProt P21453); assay: β-Arrestin2 recruitment assay (PathHunter), S1P1 CHO-K1 cells; conditions: for hS1P1 B-arrestin2 pEC50: β-arrestin2 recruitment, S1P1 CHO-K1 cells; for Emax: CHO-K1, read-out: hS1P1 B-arrestin2 SPAN
In short: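 Enzyme-fragment complementation read-out: agonist-driven β-arrestin2 binding to ProLink-tagged human S1P1 in stable CHO-K1 cells restores β-galactosidase, measured 1 h at room temperature after a 60 min 37° C. compound incubation. Potency as pEC50, efficacy relative to fingolimod (SPAN).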
Target sequence in this assay (P21453 whole entry, looked up, the tested form may be a part): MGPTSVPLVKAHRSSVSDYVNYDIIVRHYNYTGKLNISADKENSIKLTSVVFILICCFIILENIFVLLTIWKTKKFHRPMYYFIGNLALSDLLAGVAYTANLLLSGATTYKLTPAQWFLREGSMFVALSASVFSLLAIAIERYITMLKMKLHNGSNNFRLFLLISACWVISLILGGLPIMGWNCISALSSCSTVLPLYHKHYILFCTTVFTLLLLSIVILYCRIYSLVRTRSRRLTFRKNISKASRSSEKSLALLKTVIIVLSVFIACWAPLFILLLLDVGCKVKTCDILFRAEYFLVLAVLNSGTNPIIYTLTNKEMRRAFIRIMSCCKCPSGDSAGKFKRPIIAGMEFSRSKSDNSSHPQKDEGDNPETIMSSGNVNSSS
Target sequence in this assay (P32121 whole entry partner, looked up, the tested form may be a part): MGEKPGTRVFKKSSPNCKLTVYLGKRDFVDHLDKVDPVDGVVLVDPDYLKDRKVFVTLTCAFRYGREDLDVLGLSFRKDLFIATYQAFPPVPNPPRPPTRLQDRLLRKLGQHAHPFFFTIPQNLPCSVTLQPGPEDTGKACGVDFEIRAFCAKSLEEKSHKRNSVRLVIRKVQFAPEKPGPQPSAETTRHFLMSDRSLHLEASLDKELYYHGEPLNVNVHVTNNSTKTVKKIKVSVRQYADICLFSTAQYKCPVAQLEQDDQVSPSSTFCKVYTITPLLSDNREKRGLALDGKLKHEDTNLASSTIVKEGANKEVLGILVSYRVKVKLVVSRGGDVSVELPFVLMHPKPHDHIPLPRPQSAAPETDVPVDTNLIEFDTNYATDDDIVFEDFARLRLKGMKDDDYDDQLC

[3] = molecular target: human sphingosine-1-phosphate receptor 2 (S1P2) (Homo sapiens (Human), UniProt O95136); assay: Inositol monophosphate production (IP-one TB kit), S1P2 CHO-K1 cells; conditions: for hS1P2 IP-one pEC50: inositol monophosphate accumulation; for Emax: CHO-K1, efficacy normalized to CYM5520, read-out: hS1P2 IP-one SPAN
Sequence of human sphingosine-1-phosphate receptor 2 (S1P2) (O95136 whole entry): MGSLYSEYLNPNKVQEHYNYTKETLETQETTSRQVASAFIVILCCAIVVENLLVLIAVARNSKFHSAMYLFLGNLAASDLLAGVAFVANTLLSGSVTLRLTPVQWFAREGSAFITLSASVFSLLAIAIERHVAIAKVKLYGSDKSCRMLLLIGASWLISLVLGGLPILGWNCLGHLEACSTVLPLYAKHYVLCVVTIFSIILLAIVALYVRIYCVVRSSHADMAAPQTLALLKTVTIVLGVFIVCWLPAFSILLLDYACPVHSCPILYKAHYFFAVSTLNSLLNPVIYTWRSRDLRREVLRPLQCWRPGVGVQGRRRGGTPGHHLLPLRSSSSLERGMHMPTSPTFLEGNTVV
In short: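 Stable CHO-K1 cells expressing EA-β-arrestin2 and Prolink-tagged human S1P2, plated overnight, then exposed to compounds in IP-one stimulation buffer for 60 min at 37 °C. IP1 read by TR-FRET after 1 h at RT. Efficacy (SPAN) normalized to CYM5520; potency as pEC50.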

[4] = molecular target: human sphingosine-1-phosphate receptor 3 (S1P3) (Homo sapiens (Human), UniProt Q99500); assay: Inhibition of cAMP production (HTRF), S1P3 CHO-K1 cells; conditions: for hS1P3 cAMP pEC50: inhibition of cAMP production; for Emax: CHO-K1, efficacy normalized to fingolimod, read-out: hS1P3 cAMP SPAN
Sequence of human sphingosine-1-phosphate receptor 3 (S1P3) (Q99500 whole entry): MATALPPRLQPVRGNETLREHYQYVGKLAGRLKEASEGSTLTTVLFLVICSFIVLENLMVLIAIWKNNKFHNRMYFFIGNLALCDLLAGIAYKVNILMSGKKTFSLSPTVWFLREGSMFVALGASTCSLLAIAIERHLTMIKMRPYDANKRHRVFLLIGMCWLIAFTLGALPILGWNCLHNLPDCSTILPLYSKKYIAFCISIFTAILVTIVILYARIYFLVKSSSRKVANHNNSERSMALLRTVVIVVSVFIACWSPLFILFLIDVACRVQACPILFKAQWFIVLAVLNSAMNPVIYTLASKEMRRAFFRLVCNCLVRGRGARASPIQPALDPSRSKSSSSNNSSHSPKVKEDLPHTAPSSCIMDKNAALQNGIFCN

[5] = molecular target: T1, human sphingosine-1-phosphate receptor 1 (S1P1); assay: Inhibition of cAMP production (HTRF cAMP HiRange), S1P1 CHO-K1 cells; conditions: for hS1P1 cAMP pEC50: inhibition of cAMP production, S1P1 CHO-K1 cells; for Emax: CHO-K1, efficacy (SPAN) normalized to fingolimod, read-out: hS1P1 cAMP SPAN
In short: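 CHO-K1 cells stably co-expressing human S1P1 (C-terminal Prolink tag) and EA-β-arrestin2 were grown in AssayComplete Media 6 at 37° C. and 5% CO2, plated, and incubated overnight. Agonist-driven inhibition of intracellular cAMP was read by TR-FRET with the HTRF cAMP HiRange kit on a PheraStar reader. Potency is pEC50, and efficacy (SPAN) is normalized to fingolimod.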
Target sequence in this assay (P21453 whole entry, looked up, the tested form may be a part): as the sequence (P21453 whole entry, looked up, the tested form may be a part) above

[6] = efficacy (SPAN) normalized to fingolimod

Sequence of sphingosine-1-phosphate receptor 5 (S1P5) (Q9H228 whole entry): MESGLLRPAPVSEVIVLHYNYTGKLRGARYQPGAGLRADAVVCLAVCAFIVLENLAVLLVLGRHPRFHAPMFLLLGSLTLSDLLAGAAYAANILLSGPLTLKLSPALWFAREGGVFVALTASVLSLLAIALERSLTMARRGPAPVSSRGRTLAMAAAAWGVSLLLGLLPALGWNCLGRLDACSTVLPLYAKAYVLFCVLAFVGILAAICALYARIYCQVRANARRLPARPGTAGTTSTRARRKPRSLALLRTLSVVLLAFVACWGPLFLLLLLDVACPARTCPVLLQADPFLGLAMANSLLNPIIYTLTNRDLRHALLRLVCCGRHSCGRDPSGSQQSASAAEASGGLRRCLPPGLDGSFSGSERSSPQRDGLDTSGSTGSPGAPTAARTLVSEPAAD

COc1ccc(-c2noc(-c3ccc4c(c3)nnn4CC(C)(C)O)n2)c(C)c1 [Compound 26, 1-{5-[3-(4-methoxy-2-methylphenyl)-1,2,4-oxadiazol-5-yl]-1H-1,2,3-benzotriazol-1-yl}-2-methylpropan-2-ol]
hS1P5 cAMP pEC50 [1]: <5.0 | hS1P1 B-arrestin2 SPAN [2, 6]: <75 | hS1P1 B-arrestin2 pEC50 [2]: >5 | hS1P2 IP-one pEC50 [3]: <5.0 | hS1P3 cAMP pEC50 [4]: <5.0 | hS1P1 cAMP pEC50 [5]: >6.5

Cc1ccccc1-c1nc(-c2ccc3c(c2)nnn3C(C)C)no1 [Compound 99, 3-(1-isopropyl-1H-benzo[d][1,2,3]triazol-5-yl)-5-(o-tolyl)-1,2,4-oxadiazole]
hS1P5 cAMP pEC50 [1]: <5.0 | hS1P1 B-arrestin2 pEC50 [2]: >5 | hS1P2 IP-one pEC50 [3]: <5.0 | hS1P3 cAMP pEC50 [4]: <5.0 | hS1P1 cAMP pEC50 [5]: >6.5

CCC1(CC)CC(=O)c2cc(-c3nc(-c4cccnc4)no3)ccc2O1 [Compound 103, 2,2-diethyl-6-[3-(pyridin-3-yl)-1,2,4-oxadiazol-5-yl]-3,4-dihydro-2H-1-benzopyran-4-one]
Emax [1]: < 50% | hS1P5 cAMP pEC50 [1]: <5.0 | Emax [2, 6]: > 75% | hS1P1 B-arrestin2 pEC50 [2]: >5 | Emax [3]: < 50% | hS1P2 IP-one pEC50 [3]: <5.0 | Emax [4]: < 50% | hS1P3 cAMP pEC50 [4]: <5.0 | Emax [5]: > 75% | hS1P1 cAMP pEC50 [5]: >6.5

CCC1(CC)CC(=O)c2cc(-c3nc(-c4cccnc4OC)no3)ccc2O1 [Compound 147, 2,2-diethyl-6-(3-(2-methoxypyridin-3-yl)-1,2,4-oxadiazol-5-yl)chroman-4-one]
Emax [1]: < 50% | hS1P5 cAMP pEC50 [1]: >5.0 | Emax [2, 6]: > 75% | hS1P1 B-arrestin2 pEC50 [2]: >5 | Emax [3]: < 50% | hS1P2 IP-one pEC50 [3]: <5.0 | Emax [4]: < 50% | hS1P3 cAMP pEC50 [4]: <5.0 | Emax [5]: > 75% | hS1P1 cAMP pEC50 [5]: >6.5

CCC1(CC)CC(=O)c2cc(-c3nc(-c4ccncc4OC)no3)ccc2O1 [Compound 212, 2,2-diethyl-6-(3-(3-methoxypyridin-4-yl)-1,2,4-oxadiazol-5-yl)chroman-4-one]
Emax [1]: < 50% | hS1P5 cAMP pEC50 [1]: <5.0 | Emax [2, 6]: < 75% | hS1P1 B-arrestin2 pEC50 [2]: >5 | Emax [3]: < 50% | hS1P2 IP-one pEC50 [3]: <5.0 | Emax [4]: < 50% | hS1P3 cAMP pEC50 [4]: <5.0 | Emax [5]: > 75% | hS1P1 cAMP pEC50 [5]: >6.5

COc1ccccc1-c1nc(-c2ccc3c(c2)nnn3C(C)C)no1 [Compound 287, 3-(1-isopropyl-1H-benzo[d][1,2,3]triazol-5-yl)-5-(2-methoxyphenyl)-1,2,4-oxadiazole]
hS1P5 cAMP pEC50 [1]: <5.0 | hS1P1 B-arrestin2 pEC50 [2]: >5 | hS1P2 IP-one pEC50 [3]: <5.0 | hS1P3 cAMP pEC50 [4]: <5.0 | hS1P1 cAMP pEC50 [5]: >6.5

Cc1ccccc1-c1noc(-c2ccc3c(c2)nnn3C(C)C)n1 [Compound 293, 5-[3-(2-methylphenyl)-1,2,4-oxadiazol-5-yl]-1-(propan-2-yl)-1H-1,2,3-benzotriazole]
Emax [1]: > 50% | hS1P5 cAMP pEC50 [1]: <5.0 | Emax [2, 6]: > 75% | hS1P1 B-arrestin2 pEC50 [2]: >5 | Emax [3]: < 50% | hS1P2 IP-one pEC50 [3]: <5.0 | Emax [4]: < 50% | hS1P3 cAMP pEC50 [4]: <5.0 | Emax [5]: > 75% | hS1P1 cAMP pEC50 [5]: >6.5

CC(C)n1nnc2cc(-c3nc(-c4cccc5c4OCCC5)no3)ccc21 [Compound 304, 3-chroman-8-yl-5-(1-isopropylbenzotriazol-5-yl)-1,2,4-oxadiazole]
hS1P5 cAMP pEC50 [1]: <5.0 | hS1P1 B-arrestin2 pEC50 [2]: >5 | hS1P2 IP-one pEC50 [3]: <5.0 | hS1P3 cAMP pEC50 [4]: >5.0 | hS1P1 cAMP pEC50 [5]: >6.5

CC(C)n1nnc2cc(-c3nc(-c4ccncc4C(F)(F)F)no3)ccc21 [Compound 455, 1-(propan-2-yl)-5-{3-[3-(trifluoromethyl)pyridin-4-yl]-1,2,4-oxadiazol-5-yl}-1H-1,2,3-benzotriazole]
Emax [2, 6]: > 75% | hS1P1 B-arrestin2 pEC50 [2]: >5 | Emax [3]: < 50% | hS1P2 IP-one pEC50 [3]: <5.0 | Emax [4]: < 50% | hS1P3 cAMP pEC50 [4]: <5.0 | Emax [5]: > 75% | hS1P1 cAMP pEC50 [5]: >6.5

CCC1(CC)CC(=O)c2cc(-c3nc(-c4cn[nH]c4)no3)ccc2O1 [Compound 469, 6-(3-(1H-pyrazol-4-yl)-1,2,4-oxadiazol-5-yl)-2,2-diethylchroman-4-one]
Emax [2, 6]: > 75% | hS1P1 B-arrestin2 pEC50 [2]: >5 | Emax [5]: > 75% | hS1P1 cAMP pEC50 [5]: >6.5
